Laboratory results reported in US20240018230A1, “METHODS FOR TREATING OR MODULATING AN INFLAMMATORY RESPONSE” (St. Jude Children's Research Hospital, Inc., priority 2020, published 2024).

Experiments:
[1] = system: bone marrow-derived macrophages (BMDMs); experiment: Real-time imaging of cell death (propidium iodide, INCUCYTE) in BMDMs; format: cell-based, mouse; conditions: for induction of cell death in BMDMs: standard cytokine concentrations (25 ng/mL TNF-α, 50 ng/mL IFN-γ); for inhibition of cell death in response to TNF-α and IFN-γ treatment: wild-type BMDMs co-treated with 1 mM L-NAME or 100 μM 1400W
[2] = system: BMDMs; experiment: Immunoblot analysis of cell death effectors in BMDMs; format: cell-based, mouse; conditions: for cleavage of caspase-3, -7 and -8: single cytokines compared with the combination
[3] = system: HCT-116 colon cancer cells; experiment: Western blot of PANoptosis markers in HCT-116; format: cell-based, human
Experimental: Western Blot Analysis. For the western blot analyses of caspases, cancer cells were seeded a day before stimulation at a density of 0.5×10^6 cells/well in 6-well cell culture plates. The proteins from the indicated cell types were collected by combining cell lysates with culture supernatants with caspase lysis buffer (with 1× protease inhibitors, 1× phosphatase inhibitors, 10% NP-40, and 25 mM DTT) and 4× sample loading buffer (containing SDS and 2-mercaptoethanol). For the western blot analysis of all other signaling proteins, the cells were lysed in RIPA buffer, supplemented with protease inhibitor and phosphoStop as per the manufacturer's instructions and sample loading buffer. […]

[4] = system: colon cancer and melanoma cell lines; experiment: NO inhibition of TNF-α plus IFN-γ-induced cancer cell death; format: cell-based, human; conditions: 1 mM L-NAME or 100 μM 1400W
Experimental: Cell Culture and Stimulation Methods. […] Cancer cells were seeded a day before stimulation. On the day of stimulation, the cells were washed once with warm and sterile DPBS, followed by treatment with different cytokines for 48 hours. The concentration of the cytokines used were 25 ng/mL of IL-6 (Peprotech), IL-8 (Peprotech), IL-18 (R&D), IL-15 (Peprotech), IL-1α (Peprotech), IL-1β (Peprotech), IL-2 (Peprotech), TNF-α (Peprotech), and IFN-γ (Peprotech). For the inhibition of nitric oxide (NO), cancer cells were co-treated with 1 mM of L-NAME hydrochloride (TOCRIS) or 100 μM of […] dihydrochloride (Enzo Life Sciences) along with the cytokines. For inhibition of the JAK signaling pathway, the cancer cells were co-treated with 5 μM of baricitinib (Achemblock) all through the experiment. Cell Death Analysis. The kinetics of cell death were measured using a two-color INCUCYTE® S3 imaging system (Essen Biosciences). […] A series of images were acquired at 1-hour time intervals for up to 48 hours post-treatment with a 20× objective and analyzed using the INCUCYTE® S3 software, which allows precise analysis of the number of dye-positive dead cells present in each image. […]

[5] = In vivo TNF-α and IFN-γ-induced inflammatory shock (mortality, serum chemistry, blood counts, flow cytometry, histopathology); set-up: species or system mice; conditions: i.p. 10 μg TNF-α, 20 μg IFN-γ, or both
Experimental: In vivo TNF-α and IFN-γ-Induced Inflammatory Shock. Six- to eight-week-old mice of the indicated genotypes were injected intraperitoneally with 10 μg TNF-α alone, 20 μg IFN-γ alone, or TNF-α+IFN-γ diluted in endotoxin-free PBS. Animals were under permanent observation, and survival was assessed every 30 minutes. Blood was collected 5 hours after cytokine injection. Blood composition was analyzed using an automated hematology analyzer. Serum lactate dehydrogenase (LDH), alanine aminotransferase (ALT), aspartate aminotransferase (AST), blood urea nitrogen (BUN), and ferritin were analyzed by colorimetry using respective kits (LDH, ALT, AST, and BUN, all from HORIBA; and ferritin from Abcam) according to the manufacturer's instructions.
Flow Cytometry Methods. Peripheral blood was mixed with ACK lysis buffer for 3 minutes to lyse the red blood cells (RBCs). The cells were then stained with monoclonal antibodies for the following markers for flow cytometry: CD11b from eBioscience; F4/80, Ly6C, and Ly6G from BioLegend; and CD19, TCRb, and CD45.2 from Tonbo Biosciences. […]
Histopathology Methods. […] The number of cleaved caspase-3- and TUNEL-positive cells in five high power fields (20×) were counted per mouse.

[6] = system: COLO-205 cell tumors; experiment: NSG mouse xenograft tumor model, intratumoral cytokines; format: in vivo, NSG mice; conditions: intra-tumoral administration on day 12, 14 and 16 post-transplantation
Experimental: NSG Mouse Xenograft Tumor Model. The NSG mice (NOD/SCID-gamma null mouse strain that lacks […]) were used as the model recipients for the subcutaneous transplantation of human COLO-205 cancer cells. Briefly, 8- to 10-week-old NSG mice were shaved on their lower backs and transplanted with 2×10^6 COLO-205 cells in 200 μl of medium prepared by mixing (1:1) RPMI and a solubilized basement membrane preparation sold under the tradename MATRIGEL® (BD Bioscience). The mice were monitored regularly for engraftment and growth of COLO-205 cancer cell tumors. The recipient mice were divided into four groups and treated intratumorally with injection of the indicated cytokines or PBS (groups: (i) PBS, (ii) TNF-α, (iii) IFN-γ, or (iv) TNF-α(and IFN-γ) on day 12, 14 and 16 post-transplantation of the tumor cells. The tumor growth was monitored and measured using digital calipers, and the volume of the tumors were calculated using the formula: volume=(length×width^2)×½.

IFN-γ: recombinant IFN-γ protein (Peprotech)
induction of cell death in BMDMs [1]: failed to induce cell death
cleavage of GSDMD and GSDME (combination: GSDME) [2]: did not induce robust cleavage
phosphorylation of MLKL [2]: failed to induce robust MLKL phosphorylation
cleavage of caspase-3, -7 and -8 [2]: reduced cleavage
activation of biochemical markers of PANoptosis in HCT-116 [3]: only weak activation

CC(=N)NCc1cccc(CN)c1 [1400W, N-[[3-(aminomethyl)phenyl]methyl]-ethanimidamide]
inhibition of cell death in response to TNF-α and IFN-γ treatment [1]: inhibited cell death
inhibition of cancer cell death induced by TNF-α plus IFN-γ treatment [4]: failed to inhibit

TNF-α
induction of cell death in BMDMs [1]: failed to induce cell death
mortality in mice [5]: did not cause significant mortality
cleavage of GSDMD and GSDME (combination: GSDME) [2]: did not induce robust cleavage
phosphorylation of MLKL [2]: failed to induce robust MLKL phosphorylation
cleavage of caspase-3, -7 and -8 [2]: reduced cleavage
activation of biochemical markers of PANoptosis in HCT-116 [3]: only weak activation
tumor weight [6]: minor but significant reduction

[NH-]c1c[n+](N2CCOCC2)no1 [SIN-1]
kinetics of cell death induced by NO donor ([1]; wild-type BMDMs, increasing concentrations of SIN-1): proportional to the NO concentration

COC(=O)[C@@H](N)CCCNC(=N)N[N+](=O)[O-] [L-NAME, N5-[imino(nitroamino)methyl]-L-ornithine methyl ester]
inhibition of cell death in response to TNF-α and IFN-γ treatment [1]: inhibited cell death
inhibition of cancer cell death induced by TNF-α plus IFN-γ treatment [4]: failed to inhibit

B1: IFN-γ: recombinant IFN-γ protein (Peprotech) (protein, UniProt P01579 24-161, looked up)
Interferon gamma: QDPYVKEAENLKKYFNAGHSDVADNGTLFLGILKNWKEESDRKIMQSQIVSFYFKLFKNFKDDQSIQKSVETIKEDMNVKFFNSNKKKRDDFEKLTNYSVTDLNVQRKAIHELIQVMAELSPAAKTGKRKRSQMLFRG
mortality in mice [5]: did not cause significant mortality
